Experimental data: patent publication US11096985B2, “Antimicrobial peptides, their variants and uses” (priority 2015, dated 2021)
Values after ≈ are worked out from the molar mass of the structure shown. “Also recorded” adds a separate entry of the source. Where a SMILES comes first, the peptide text is derived from it.

Assays:
[1] = tested on: Aspergillus flavus (DSM 1959); assay: Radial diffusion assay, antifungal, A. flavus; type: cell-based; settings: 20 μg
Method: (§1) The radial diffusion assay (RDA) was carried out as described by Andersen et al. (2010). Briefly, 30 ml of 1/10 Muller-Hinton broth (MHB) supplemented with 1% agarose and 5.0×10^5 CFU/ml S. aureus or E. coli or K. pneumoniae, P. aeruginosa cells was poured into a single-well omnitray (Nunc) and overlaid with a TSP 96-well plate. One hundred μg of each synthesized peptide was tested. The peptides were also tested against Fusarium oxysporum and Verticillium dahliae, for which 1/3 potato dextrose agarose was used. To test the synergistic effect of peptides, each peptide was mixed in equimolar concentrations. Mix1 (met1-12), Mix2 (met3, 4 and 5), Mix3 (met 8, 9 and 10), Mix 4 (met11, 12) and Mix5 (8, 9, 10, 11, 12) were prepared and tested against E. coli and S. aureus. Gentamicin and vancomycin were included as positive controls for bacteria and amphotericin B was used as the control for fungi.
(§2) By using rational design techniques, we have designed variants of peptides by incorporating or replacing various amino acids in the original peptides. Thus, we have designed and modified Chain 100, Chain 200 and Chain 300 with tryptophan (W), arginine (R) and lysine (K) at various positions to improve antimicrobial activity (FIGS. 4a-c and 5a-c). In some peptides we have also used other amino acids such as Leucine (L), Cysteine (C), Isoleucine (I), Phenylalanine (F) and Alanine (A). For synthesis, 32 variants and 3 original peptides were selected based on the various parameters such as positive charge, aliphatic index and instability index. Peptides variants were tested by using radial diffusion assay against Escherichia coli (ATCC 25922), Staphylococcus aureus (ATCC 25923), Klebsiella pneumoniae (ATCC 10031) and Pseudomonas aeruginosa (ATCC 27853) (FIGS. 6a-c). The zone of inhibition ranged between 10-18 mm for Escherichia coli and Staphylococcus aureus, 6-18 mm & 8-18 mm for Pseudomonas aeruginosa and Klebsiella pneumonia respectively (Table 2). For Gentamicin it was between 22-24 mm. Antifungal activity was tested for promising antibacterial peptides (Chains 104, 105, 109, 201, 204, 306, 307, 308, 310) against Aspergillus flavus (DSM 1959) and Penicillium chrysogenum (DSM 1075). All these peptides has activity at a concentration of 20 μg, Amphotericin B was used as a positive control at 20 μg (FIG. 7).

[2] = tested on: Penicillium chrysogenum (DSM 1075); assay: Radial diffusion assay, antifungal, P. chrysogenum; type: cell-based; settings: 20 μg
Method: as §1, §2

[3] = tested on: 4 ATCC bacterial strains; assay: Effect of NaCl on MIC; type: cell-based; settings: 200 mM NaCl in MH medium
Method: (§4) Thermal stability was evaluated by diluting peptides to the concentration of 2 mg/ml in PBS buffer (pH 7.4) and incubating at different temperatures, such as +4° C., 25° C. (RT), 37° C. and 45° C., peptides stored at −20° C. were used as control. […] Peptides were also tested by diluting them at different pH values starting from pH 4 to 9. The effect of NaCl on the antimicrobial activity was tested by adding different concentrations (50, 100 and 200 mM) of NaCl to MH medium and the minimum inhibitory concentrations were tested against 4 ATCC bacterial strains.

[4] = +4, 25, 37 and 45° C., 14 days, PBS pH 7.4, RDA with 20 μg
Method: as §4

[5] = tested on: gram positive and negative bacteria; assay: MIC by micro broth dilution, summary over the strains tested; type: cell-based
Method: (§3) Minimum inhibition concentrations (MICs) were determined against Escherichia coli (ATCC 25922), Staphylococcus aureus (ATCC 25923), Klebsiella pneumoniae (ATCC 10031) and Pseudomonas aeruginosa (ATCC 27853). Also clinical strains of E. coli, K. pneumoniae, E. cloacae, P. aeruginosa, Serratia marcescens, Proteus mirabilis, S. pneumoniae, Acinetobacter baumannii, A. johnsonii and S. aureus were used for MICs assays. Additionally, clinical strains of yeast including Candida albicans, C. glabrata, C. parapsilosis and C. quillermondiae were used. The susceptibility of these microorganisms to Chain peptides were determined using micro broth dilution assay. Colonies of the respective microorganism from Muller Hinton (MH) agar plates incubated overnight were suspended in MH broth media and final concentration of microorganism was adjusted to 5.0×10^5 cfu/ml. An aliquot of 10 μl of each Chain peptide, or gentamicin, tetracycline as reference antibiotics were added in differing concentrations along with 90 μl of bacterial suspension to 96 well polypropylene plates and incubated at 37° C. for 20 to 24 hours. Concentrations of Chain peptides and reference antibiotics ranged from 0.125 to 128 μg/ml and the MICs were recorded as the lowest concentration with no visual growth of bacteria. Similarly, antifungal MICs were tested in Potato dextrose broth.

[6] = pH 4-9, RDA
Method: as §4

[7] = tested on: Staphylococcus aureus (ATCC 25923); type: cell-based; settings: ATCC 25923
Method: as §3

[8] = tested on: Pseudomonas aeruginosa (ATCC 27853); type: cell-based; settings: ATCC 27853
Method: as §3

[9] = tested on: Klebsiella pneumoniae (ATCC 10031); type: cell-based; settings: ATCC 10031
Method: as §3

[10] = tested on: Escherichia coli (ATCC 25922); type: cell-based; settings: ATCC 25922
Method: as §3

[11] = tested on: human erythrocytes; type: cell-based
Method: In hemolysis assays, the ability of peptides at 128 μg/ml concentration to lyse human erythrocytes to release hemoglobin was measured. The peptides described here preferably have low hemolytic activity (0.2 to 3.8% hemolysis) in mammal body. […] These peptides are useful as antimicrobial drugs as they show little or no side effects at concentrations needed to kill bacteria.
Minimum inhibition concentrations (MICs) were tested by microbroth dilution method and Chain 104, 105 and 109 inhibited the growth of Escherichia coli (ATCC 25922), Staphylococcus aureus (ATCC 25923), Klebsiella pneumoniae (ATCC 10031) and Pseudomonas aeruginosa (ATCC 27853) between 1-8 μg/ml respectively (Tables 3a, 3b and 3c). The membranolytic activities of the peptides were tested by measuring the release of hemoglobin from erythrocytes of fresh blood donated by voluntiers. Hemoglobin levels were determined spectrometrically by taking OD at 540 nm by following the protocol of Schmidtchen et al., 2011.

[12] = tested on: E. coli; assay: Transmission electron microscopy of treated E. coli; type: cell-based, Escherichia coli; settings: 10 μg/ml, 37° C., 1 h
Method: E. coli and S. aureus were grown to mid-exponential phase and diluted in Muller Hinton broth (MHB) medium to a cell density of 0.1 by taking absorbance at 600 nm and incubated at 37° C. for 1 h with 10 μg/ml Chain peptides. After incubation, an equal volume of 2% glutaraldehyde in 0.1 M phosphate buffer was added and the cells were pelleted by centrifugation at 5000 rpm for 2 minutes, and the cell pellet was fixed with 1% glutaraldehyde in 0.1 M phosphate. Cells were post-fixed with osmium tetroxide, dehydrated using increasing concentrations of acetone or alcohol, and embedded in plastic resin (Epon). Ultrathin sections (70-80 nm) were post-stained with uranyl acetate and lead citrate before observation with TEM. Microscopy was performed with a Tecnai G2 Spirit 120 kV TEM with Veleta and Quemesa CCD cameras.

For `CC(C)C[C@H](NC(=O)[C@H](CCCNC(=N)N)NC(=O)[C@H](Cc1c[nH]c2ccccc12)NC(=O)[C@H](CCCNC(=N)N)NC(=O)[C@H](CCCCN)NC(=O)[C@H](CC(C)C)NC(=O)[C@@H](N)CCCNC(=N)N)C(=O)N[C@@H](Cc1ccccc1)C(=O)N[C@@H](CCCNC(=N)N)C(=O)N[C@@H](CCCCN)C(=O)N[C@@H](CCCNC(=N)N)C(=O)O` [Chain306] (H-RLKRWRLFRKR-OH; N-terminus and C-terminus assumed), the “antifungal activity against Aspergillus flavus” value [1] was “has activity; also recorded: particularly active”, the “antifungal activity against Penicillium chrysogenum” value [2] was “has activity; also recorded: particularly active” and the “increase in MIC values with NaCl” value [3] was 2 fold. The “thermostability (antibacterial activity kept after incubation)” value [4] was “not hindered by pH or temperature even upto 45 °C for over 14 days”, the “activity against the four ATCC strains” value [5] was “very active” and the “pH stability (zone of inhibition)” value [6] was “not hindered by pH”.
In the case of `CC[C@H](C)[C@H](NC(=O)[C@H](CCCCN)NC(=O)[C@H](CCCNC(=N)N)NC(=O)[C@H](Cc1c[nH]c2ccccc12)NC(=O)[C@H](CCCNC(=N)N)NC(=O)[C@@H](NC(=O)[C@@H](NC(=O)[C@H](CCCNC(=N)N)NC(=O)[C@@H](N)Cc1c[nH]c2ccccc12)[C@@H](C)CC)C(C)C)C(=O)N[C@@H](CCCCN)C(=O)N[C@@H](CCCNC(=N)N)C(=O)O` [Chain209] (H-WRIVRWRKIKR-OH; N-terminus and C-terminus assumed), the “Minimum inhibitory concentration, Staphylococcus aureus (ATCC 25923)” value [7] is reported as >128 µg/mL, the “Minimum inhibitory concentration, Pseudomonas aeruginosa (ATCC 27853)” value [8] is reported as >128 µg/mL and the “Minimum inhibitory concentration, Klebsiella pneumoniae (ATCC 10031)” value [9] is reported as >128 µg/mL. The “Minimum inhibitory concentration, Escherichia coli (ATCC 25922)” value [10] was 64 µg/mL (≈ 40.1 µM).
For `CC(C)C[C@H](NC(=O)[C@H](CC(C)C)NC(=O)[C@H](Cc1ccccc1)NC(=O)[C@H](Cc1c[nH]c2ccccc12)NC(=O)[C@H](CCCCN)NC(=O)[C@H](CC(C)C)NC(=O)[C@@H](N)CCCNC(=N)N)C(=O)N[C@@H](Cc1ccccc1)C(=O)N[C@@H](CCCNC(=N)N)C(=O)N[C@@H](CCCCN)C(=O)N[C@@H](CCCNC(=N)N)C(=O)O` [Chain308] (H-RLKWFLLFRKR-OH; N-terminus and C-terminus assumed), the “side effects to humans as tested by hemolysis assay” value [11] was “little side effects”, the “antifungal activity against Aspergillus flavus” value [1] was “has activity; also recorded: particularly active” and the “antifungal activity against Penicillium chrysogenum” value [2] was “has activity; also recorded: particularly active”. The “increase in MIC values with NaCl” value [3] was 2 fold, the “thermostability (antibacterial activity kept after incubation)” value [4] was “not hindered by pH or temperature even upto 45 °C for over 14 days” and the “activity against the four ATCC strains” value [5] was “very active”. The “pH stability (zone of inhibition)” value [6] was “not hindered by pH” and the “TEM observation of E. coli cells” value [12] was “almost all E. coli cells had lost their rod-shaped structural integrity”.
